Entries after “also recorded” stand apart in the source; their conditions may differ. Structures can show the parent of a compound that is named as a salt.
What was measured:
C-26 colon carcinoma [1] = test: Tumor treatment, subcutaneous colon carcinoma; assay type: in vivo, mice; conditions: for survival of the animals at 120 days following tumor implantation: 6 mg/kg on days 1, 8 and 15, seven animals per group; for tumor growth compared with the saline control: IV on days 1, 8 and 15, FIG. 15A
Procedure: Vesicle-forming lipids containing PEG-PE, PG, PHEPC, and cholesterol and α-TC in a mole ratio of 0.15:0.3:1.85:1:0.2 were dissolved in chloroform to a final lipid concentration of 25 μmol phospholipid/ml. The lipid mixture was dried into a thin film under reduced pressure. […] The MLV suspension was frozen in a dry ice acetone bath and thawed three times and sized to 80-100 nm by extrusion as detailed above. An ammonium ion gradient was created substantially as described in Example 10. The liposomes were loaded with epirubicin, and free (unbound drug) removed also as described in Example 10 for doxorubicin. […] Epirubicin HCl and doxorubicin HCL, the commercial products, were obtained from the hospital pharmacy.
About 10^6 cells C-26 colon carcinoma cells were injected subcutaneously into three groups of 35 mice. The groups were subdivided into five 7-animal subgroups.
Each group was followed for 28 days. Tumor size was measured for each animal on days 5, 7, 12, 14, 17, 21, 24 and 28. The growth of the tumor in each subgroup (expressed as the mean tumor size of the individual animals) at each time point is plotted in FIG. 15A.
The same number of animals were inoculated with the same number of tumor cells as described above.

[2] = system: syngeneic MC2 mouse mammary carcinoma; test: Tumor treatment, breast carcinoma; assay type: in vivo, C3H/He mice; conditions: 6 mg/kg IV on days 1, 8 and 15; FIG. 21
Procedure: Ten-week-old female C3H/He mice were randomized into three groups of 20 animals and each received bilateral subcutaneous implants of 10^5˜10^6 syngeneic MC2 mouse mammary carcinoma cells on day 0. Intravenous injections of 6 mg/kg of free epirubicin, PEG liposomes with entrapped epirubicin (6 mg/kg) or a saline control were given on days 1, 8 and 15. Weights of the animals were taken on days 0, 7, 14, 22 and 24.
Results of the study are plotted in FIG. 21, where mean tumor size for the three treatment groups is as indicated, expressed as mean tumor size (in mm^3×10^−1) for all three treatment groups. […] At day 24 the statistical confidence between the liposome and free drug groups is extremely high (+=9.9, p<0.0000001 using the Student's +tests).

Maximum tolerated dose = test: Maximum tolerated dose
Procedure: Solutions of free doxorubicin HCl, epirubicin HCl were obtained as above. PEG-liposome formulations containing either doxorubicin or epirubicin, at a drug concentration of 70-90 μg compound/μmole liposome lipid, were prepared as described in Example 10. Conventional liposomes (no PEG-derivatized lipid) were loaded with doxorubicin to a drug concentration of […] lipid using standard techniques.
Each of the five formulations was administered to 35 mice, at a dose between 10 and 40 mg drug/kg body weight, in 5 mg/kg increments, with five receiving each dosage.

[3] = Multidose toxicity of epirubicin: weight change and heart histology; assay type: in vivo, mice
C-26 colon carcinoma [4] = conditions: cited from earlier work
[5] = system: syngeneic mammary carcinoma cells (MC2); conditions: cited from earlier work
[6] = Survival at 120 days following a single injection
J-6456 lymphoma [7] = test: Tissue distribution of doxorubicin, subcutaneous tumor; assay type: in vivo, mice; conditions: heart, muscle, tumor at 4, 24, 48 hours; 10 mg/kg IV
Procedure: That liposome delivery to the tumor is required for selective drug targeting can be seen from the study reported in Example 12. Here mice were inoculated subcutaneously with the J-6456 lymphoma which formed a solid tumor mass of about 1 cm^3 after one-two weeks. The animals were then injected either with free doxorubicin or doxorubicin loaded into PEG-liposomes at a dose of 10 mg drug per kg body weight. The tissue distribution (heart, muscle, and tumor) of the drug was then assayed at 4, 24, and 48 hours after drug administration.
Two groups of twelve mice were injected subcutaneously with 10^6 J-6456 tumor cells. After 14 days the tumors had grown to about 1 cm^3 in size in the subcutaneous space and the animals were injected IV (tail vein) with 10 mg/kg doxorubicin as free drug (group 1) or encapsulated in PEG liposomes (group 2). At 4, 24, and 48 hours after drug injection, four animal in each group were sacrificed, and sections of tumor, heart, and muscle tissue were excised. Each tissue was weighed, then homogenized and extracted for determination of doxorubicin concentration using a standard florescence assay procedure Gabizon, 1989). The total drug measured in each homogenate was expressed as μg drug per gram tissue.

J-6456 lymphoma [8] = test: Tumor treatment, survival after IP lymphoma implantation; assay type: in vivo, mice; conditions: 10 mg/kg IV
Procedure: A doxorubicin HCl solution to be used as the free drug control was obtained from a hospital pharmacy. A total of 30 mice were injected IP with 10^6 J-6456 lymphoma cells. The animals were divided into three 10-animal groups, each of which was injected IV with 0.4 ml of either saline vehicle, 10 mg/kg doxorubicin solution or the doxorubicin-loaded liposomes at 10 mg/kg. Each group was followed for 100 days for number of surviving animals. The percent survivors for each treatment group is plotted in FIG. 16.

Blood biochemistry = assay type: in vivo, mice; conditions: pooled serum
Procedure: Blood chemistries were measured in groups of both male and female mice receiving the same dose and injection schedule of free or PEG-liposomes with entrapped epirubicin as above.

[9] = Multidose toxicity of doxorubicin: weight change and histopathology; assay type: in vivo, mice; conditions: four weekly 10 mg/kg, sacrificed day 29
Procedure: FIG. 20 is a plot of weight changes in normal Sabra male mice untreated (open circles) or treated with four weekly intravenous injections on days […] with a 10 mg/kg dose of either free doxorubicin (open triangles) or PEG liposomes with entrapped doxorubicin (open squares); and
Similar reduced toxicity results were obtained when free doxorubicin was compared with PEG liposomes with entrapped doxorubicin, in groups of mice receiving four weekly injections of 10 mg/kg doxorubicin on days 1, 8, 15 and 22.

C-26 colon carcinoma [10] = test: Tumor treatment with conventional doxorubicin liposomes; assay type: in vivo, mice; conditions: 10 mg/kg on days 8, 15 and 22; FIG. 17
Procedure: Conventional doxorubicin liposomes (L-DOX) were prepared according to published methods (Gabizon, 1988). Briefly, a mixture of eggPG, Egg,PC, cholesterol and α-TC in a mole ratio of 0.3:1.4:1:0.2 was made in chloroform. The solvent was removed under reduced presssure and the dry lipid film hydrated with a solution of 155 mM NaCl containing 2-5 mg doxorubicin HCl. The resulting MLV preparation was down-sized by extrusion through a series of polycarbonate membranes to a final size of about 250 nm. The free (unentrapped) drug was removed by passing the suspension over a bed of Dowex resin. The final doxorubicin concentration was about […] lipid.
Three groups of 7 mice were inoculated subcutaneously with 10^5-10^6 C-26 colon carcinoma cells as detailed in Example 15. The animals were divided into three, 7-animal treatment groups, one of which receivd 0.5 ml of saline vehicle as a control. The other two groups were treated with doxorubicin either as a free drug solution or in the form of L-DOX liposomes at a dose of 10 mg/kg. The treatments were given on days 8, 15 and 22 after tumor cell inoculation. Tumor size was measured on the days treatments were given and day 28.

[11] = dog, in vivo
Procedure: (§1) The PEG-PE lipids were formulated with hydrogenated soy bean PC(HSPC) and cholesterol, in a mole ratio of 0.15:1.85:1 (PEG-Dox).
(§2) A doxorubicin HCl solution (the marketed product, Free Dox) was obtained from the hospital pharmacy.
(§3) Free DOX, PEG-Dox and HPI-Dox were diluted to the same concentration (1.8 mg/ml) using unbuffered 5% glucose on the day of injection. Dogs were randomized into three groups (2 females, 1 male) and weighed. An 18 gauge Venflon IV catheter was inserted in a superficial limb vein in each animal. The drug and liposome suspensions were injected by quick bolus (15 seconds). Four ml blood samples were before injection and at 5, 10, 15, 30, 45 min, 1, 2, 4, 6, 8, 10, 12, 24, 48 and 72 hours post injection. In the liposome groups blood was also drawn after 96, 120, 144, and 168 hours. Plasma was separated from the formed elements of the whole blood by centrifugation and doxorubicin concentrations assayed by standard fluorescence techniques. The amount of doxorubicin remaining in the blood was expressed as a percentage of peak concentration of labeled drug, measured immediately after injection.

[12] = Plasma kinetics of free and liposomal doxorubicin; conditions: dogs
Procedure: as §1, §2, §3

J-6456 lymphoma [13] = test: Tissue distribution of doxorubicin, ascites tumor; conditions: for Plasma: 10 mg/kg doxorubicin IV; for Plasma / Ascites Tumor (tumor & fluid) / Heart / Liver: value (SD); for Ascites Tumor (tumor & fluid) / Heart / Liver: 10 mg/kg
Procedure: Two groups of 15 mice were injected interperitoneally with 10^6 J-6456 lymphoma cells. The tumor was allowed to grow for one-two weeks at which time 5 ml of ascites fluid had accumulated. The mice were then injected IV with 10 mg/kg doxorubicin either in free drug form (group 1) or entrapped in PEG liposomes as described in Example 11 (group 2). Ascites fluid was withdrawn from three animals in each group at 1, 4, 15, 24 and 48 hours post treatment. The ascites tumor was further fractionated into cellular and fluid components by centrifugation (15 min. 5000 rpm). Free and liposome-bound drug in the supernatant was determined by passing the fluid through a Dowex 50-WX-4 resin, as above, to remove free drug. The doxorubicin concentrations in the ascites fluid, tumor cells, supernatant, and resin-treated supernatant were then determined, and from these values, μg doxorubicin/gram tissue was calculated.
In a similar experiment two groups of twelve mice were implanted IP with the J-6456 lymphoma and the tumor was allowed to establish as described above. Once the ascites tumor had reached about 5 ml, one group of animals was injected with 10 mg/kg free doxorubicin and the other group with 10 mg/kg doxorubicin entrapped in PEG liposomes. At 4, 24 and 48 hours post treatment ascites fluid and blood samples were withdrawn from four animals in each group and the animals were sacrificed. Sections of liver and heart tissue were excised from each animal, homogenized and drug concentration assayed as described above. Plasma was separated from whole blood by centrifugation and drug concentration assayed as stated above. Doxorubicin concentration in the ascites fluid was also measured. Plasma and ascites fluid levels are expressed as pg doxorubicin per ml and liver and heart tissue values as pg doxorubicin per gram tissue. The standard deviations for each measurement is shown in parentheses.

SMILES: COc1cccc2c1C(=O)c1c(O)c3c(c(O)c1C2=O)C[C@@](O)(C(=O)CO)C[C@@H]3O[C@H]1C[C@H](N)[C@@H](O)[C@H](C)O1 [EPI, Epirubicin HCl]
- survival of the animals at 120 days following tumor implantation (C-26 colon carcinoma [1]): none
- tumor growth compared with the saline control (C-26 colon carcinoma [1]): neither free doxorubicin nor free epirubicin at 6 mg/kg significantly suppressed tumor growth
- tumor response, delayed treatment (C-26 colon carcinoma [1]; days 3, 10, 17 or days 10, 17, 24, 6 mg/kg (liposomes also 9 mg/kg), FIGS. 15B, 15C, 18, listed as free epirubicin, HCl): only a modest retardation in the rate of tumor growth; also recorded: no tumor regression was seen
- tumor growth [2]: the tumor grows quickly
- MTD at 14 days (Maximum tolerated dose; mouse, in vivo): 10 mg/kg
- weight change ([3]; three weekly injections from day 3, 26-day period, C-26 tumor-bearing mice, FIG. 19): lost weight rapidly starting about day 10
- histological examination of heart muscle tissue ([3]; three weekly injections, 6 mg/kg free, 6 or 9 mg/kg liposomal): significant cardiomyopathy was observed
- in vitro activity against C-26 colon carcinoma (C-26 colon carcinoma [4]): show in vitro activity against this tumor
- in vitro sensitivity of MC2 cells [5]: sensitive in vitro
- Surviving mice at 120 days ([6]; 3 mg/kg): 5/5
- Surviving mice at 120 days ([6]; 6 mg/kg): 5/5
- Surviving mice at 120 days ([6]; 9 mg/kg): 2/5
- Surviving mice at 120 days ([6]; 12 mg/kg): 0/5
- Surviving mice at 120 days ([6]; 15 mg/kg): 0/5
- dose at which 2/5 animals died ([6]; 120 days): 9 mg/kg

SMILES: COc1cccc2c1C(=O)c1c(O)c3c(c(O)c1C2=O)C[C@@](O)(C(=O)CO)C[C@@H]3O[C@H]1C[C@H](N)[C@H](O)[C@H](C)O1.Cl [Free DOX, Doxorubicin HCl]
- selective drug accumulation in the tumor (J-6456 lymphoma [7]): No selective drug accumulation into the tumor occurred
- survival of the animals at 120 days following tumor implantation (C-26 colon carcinoma [1]): none
- tumor growth compared with the saline control (C-26 colon carcinoma [1]): neither free doxorubicin nor free epirubicin at 6 mg/kg significantly suppressed tumor growth
- survival relative to the saline group (J-6456 lymphoma [8]): little improvement in survival over the saline group
- Maximum Tolerated Dose (Maximum tolerated dose; in mice, highest dose without death or dramatic weight loss within 14 days): 10 to 12 mg/kg
- Albumin (Blood biochemistry; females): 31 g/1
- Alk. Phos. (Blood biochemistry; females): 162 μ/1
- Calcium (Blood biochemistry; females): 2.9 mmol/1
- Chloride (Blood biochemistry; females): 118 mmol/1
- Cholesterol (Blood biochemistry; females): 4.7 mmol/1
- Creatinine (Blood biochemistry; females): 123 μmol/1
- Glucose (Blood biochemistry; females): 2.9 mmol/1
- Phosphorus (Blood biochemistry; females): 3.4 mmol/1
- Sodium (Blood biochemistry; females): 154 mmol/1
- Total protein (Blood biochemistry; females): 57 g/1
- Urea (Blood biochemistry; females): 12.5 mmol/1
- Uric acid (Blood biochemistry; females): 350 μmol/1
- Albumin (Blood biochemistry; males): 21 g/1
- Alk. Phos. (Blood biochemistry; males): 129 μ/1
- Bilirubin (Blood biochemistry; males): 0 μmol/1
- Calcium (Blood biochemistry; males): 1.6 mmol/1
- Chloride (Blood biochemistry; males): 117 mmol/1
- Cholesterol (Blood biochemistry; males): 6.0 mmol/1
- Creatinine (Blood biochemistry; males): 37 μmol/1
- Glucose (Blood biochemistry; males): 1.3 mmol/1
- Phosphorus (Blood biochemistry; males): 5.2 mmol/1
- Sodium (Blood biochemistry; males): 150 mmol/1
- Total protein (Blood biochemistry; males): 39 g/1
- Urea (Blood biochemistry; males): 12.4 mmol/1
- Uric acid (Blood biochemistry; males): 333 μmol/1
- histopathology, gonads [9]: lack of follicular maturation and of spermatogenesis
- histopathology, heart [9]: mild to moderate myolysis was seen in all (13) mice
- histopathology, kidney [9]: advanced signs of nephrosis
- histopathology, lungs, adrenals, small bowel, pancreas, urinary bladder [9]: No damage was observed
- histopathology, spleen [9]: reversible atrophy of the red and white pulp
- histopathology, liver ([9]; listed as free doxorubicin, HCl): hematopoiesis foci were present in both groups; also recorded: microcytosis was also observed
- tumor growth (C-26 colon carcinoma [10]): suppressed tumor growth to a modest extent compared with the saline control
- AUC [11]: 7.1 to 10.0 mg/L
- clearance [11]: 10 to 15 mL/min
- Kinetic Pattern ([11]; iv): Bi-exp.
- Peak Conc. ([11]; iv): 0.4 to 2.2 mg/L
- in vitro activity against C-26 colon carcinoma (C-26 colon carcinoma [4]): show in vitro activity against this tumor
- in vitro sensitivity of MC2 cells [5]: sensitive in vitro
- t1/2 [12]: 1.9 to 3.3 h
- Tumor/Heart (J-6456 lymphoma [13]; 4 hours): 0.0052
- Plasma (J-6456 lymphoma [13]; 4 hours): 0.9 (0.0) μg/ml
- Ascites Tumor (tumor & fluid) (J-6456 lymphoma [13]; 4 hours): 0.3 (0.1) μg/ml
- Heart (J-6456 lymphoma [13]; 4 hours): 5.7 (3.4) μg/gram
- Liver (J-6456 lymphoma [13]; 4 hours): 8.1 (1.4) μg/gram
- Tumor/Heart (J-6456 lymphoma [13]; 24 hours): 0.04
- Plasma (J-6456 lymphoma [13]; 24 hours): 0.0 µg/mL
- Ascites Tumor (tumor & fluid) (J-6456 lymphoma [13]; 24 hours): 0.1 (0.1) μg/ml
- Heart (J-6456 lymphoma [13]; 24 hours): 2.5 (0.3) μg/gram
- Liver (J-6456 lymphoma [13]; 24 hours): 6.2 (4.8) μg/gram
- Tumor/Heart (J-6456 lymphoma [13]; 48 hours): 0.266
- Plasma (J-6456 lymphoma [13]; 48 hours): 0.0 µg/mL
- Ascites Tumor (tumor & fluid) (J-6456 lymphoma [13]; 48 hours): 0.4 (0.3) μg/ml
- Heart (J-6456 lymphoma [13]; 48 hours): 1.5 (0.6) μg/gram
- Liver (J-6456 lymphoma [13]; 48 hours): 6.1 (3.6) μg/gram
